Laboratory results from patent US20250281424A1 (New York Blood Center, Inc, priority 2020, published 2025).

Molecular target: T1, human PF4 (Homo sapiens, UniProt P02776)
T1 construct: PF4 is a 70 amino acid, lysine-rich 7.8 kDa platelet-specific protein; made in house; host or cells: Escherichia coli BL21DE3 pLysS (pT7-7) and/or Drosophila S2 cells
T1 sequence (P02776 32-101): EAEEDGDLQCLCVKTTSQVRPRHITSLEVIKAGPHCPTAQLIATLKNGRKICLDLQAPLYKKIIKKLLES
Assay: Inhibition of PF4 tetramer formation (BS3 cross-linking, SDS-PAGE)
Assay type: biochemical
Conditions: for IC50: read-out: IC50 of PF4 tetramer formation inhibition; for inhibition at 5 µM: 5 μM inhibitor; for inhibition at 5 µM / inhibition at 10 µM / inhibition at 1 µM / inhibition at 3 µM: read-out: % inhibition of PF4 tetramer formation at single concentration of inhibitor; for inhibition at 10 µM: 10 μM inhibitor (column A); for inhibition at 1 µM: 1 μM inhibitor; for inhibition at 3 µM: 3 μM inhibitor (column A)
Outline: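 Monomer, dimer, trimer and tetramer fractions were quantified by densitometry after reducing 12% SDS-PAGE of BS3-cross-linked (0.2 mM, 30 min, room temperature) PF4. Before cross-linking, 10 μg/ml E. coli-expressed human WT PF4 in PBS was exposed to compound for 15 min at 37° C or 60 min at room temperature; controls lacked compound.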

Structure (SMILES)	IC50	inhibition at 5 µM	inhibition at 10 µM	inhibition at 1 µM	inhibition at 3 µM
COCCCNC(=O)C1C(=O)c2ccc(C(=O)c3ccc4c(c3)C(=O)C(C(=O)NCCCOC)C4=O)cc2C1=O (centres unmarked) [Example 88, N-(3-methoxypropyl)-5-{2-[(3-methoxypropyl)carbamoyl]-1,3-dioxo-2,3-dihydro-1H-indene-5-carbonyl}-1,3-dioxo-2,3-dihydro-1H-indene-2-carboxamide]	21 µM				
CC(=O)C1(C(=O)OC(C)C)C(=O)c2ccc(Oc3ccc4c(c3)C(=O)CC4=O)cc2C1=O (centres unmarked) [Example 8, ethyl 2-acetyl-5-(1,3-dioxo-indan-5-yloxy)-1,3-dioxo-indan-2-carboxylic acid isopropyl ester]	3.4 µM				
C=C1C[C@@H](C(=O)C2C(=O)c3ccc(C(=O)c4ccc5c(c4)C(=O)C(C(=O)[C@@H]4CC(=C)CN4C(=O)OC(C)(C)C)C5=O)cc3C2=O)N(C(=O)OC(C)(C)C)C1 (stereo partly drawn) [Example 133, tert-butyl (2S)-2-(5-{2-[(2S)-1-[(tert-butoxy)carbonyl]-4-methylidenepyrrolidine-2-carbonyl]-1,3-dioxo-2,3-dihydro-1H-indene-5-carbonyl}-1,3-dioxo-2,3-dihydro-1H-indene-2-carbonyl)-4-methylidenepyrrolidine-1-carboxylate]	~6 µM	66%	88%		
O=C(c1ccc2c(c1)C(=O)C(C(=O)[C@@H]1CCNC1)C2=O)c1ccc2c(c1)C(=O)C(C(=O)[C@H]1CCCN1)C2=O (stereo partly drawn) [Example 349, 5-{1,3-dioxo-2-[(3R)-pyrrolidine-3-carbonyl]-2,3-dihydro-1H-indene-5-carbonyl}-2-[(2R)-pyrrolidine-2-carbonyl]-2,3-dihydro-1H-indene-1,3-dione]				2%	27%
O=C(c1ccc2c(c1)C(=O)C(C(=O)NC1CCCC1)C2=O)c1ccc2c(c1)C(=O)C(C(=O)NC1CCCC1)C2=O (centres unmarked) [Example 71, 5,5′-carbonylbis(n-cyclopentyl-1,3-dioxo-2,3-dihydro-1h-indene-2-carboxamide)]	1 µM	2%	85%		
COC(=O)N1CCC[C@H]1C(=O)C1C(=O)c2ccc(-c3ccc4c(c3)C(=O)C(C(=O)[C@@H]3CCCN3C(=O)OC)C4=O)cc2C1=O (stereo partly drawn) [Example 213, methyl (2S)-2-{2′-[(2S)-1-(methoxycarbonyl)pyrrolidine-2-carbonyl]-1,1′,3,3′-tetraoxo-1H,1′H,2H,2′H,3H,3′H-[5,5′-biindene]-2-carbonyl}pyrrolidine-1-carboxylate]	4.8 µM	87%	89%		
O=C(c1ccc2c(c1)C(=O)C(C(=O)NCC1CCS(=O)(=O)C1)C2=O)c1ccc2c(c1)C(=O)C(C(=O)NCC1CCS(=O)(=O)C1)C2=O (centres unmarked) [Example 359, N-[(1,1-dioxo-1λ^6-thiolan-3-yl)methyl]-5-(2-{[(1,1-dioxo-1λ^6-thiolan-3-yl)methyl]carbamoyl}-1,3-dioxo-2,3-dihydro-1H-indene-5-carbonyl)-1,3-dioxo-2,3-dihydro-1H-indene-2-carboxamide]				34%	45%
CCCC(=O)C1C(=O)c2ccc(Oc3ccc4c(c3)C(=O)C(C(=O)CCC)C4=O)cc2C1=O (centres unmarked) [Example 321, 2-butanoyl-5-[(2-butanoyl-1,3-dioxo-2,3-dihydro-1H-inden-5-yl)oxy]-2,3-dihydro-1H-indene-1,3-dione]				17%	23%
CC(C)(C)OC(=O)N1CCC[C@@H]1C(=O)C1C(=O)c2ccc(C(=O)c3ccc4c(c3)C(=O)C(C(=O)[C@H]3CCCN3C(=O)OC(C)(C)C)C4=O)cc2C1=O (some centres unmarked) [Example 161]	1 µM	87%	93%		
